Data reported in the NIST ThermoML archive (doi:10.1016/j.fluid.2012.06.013).
Numbers after ± are expanded uncertainties.

Experiments:
[1] = Liquid; for mass density: 298.15 K, Vibrating tube method
[2] = xn = mol fraction of the nth substance listed; settings: 298.15 K, 101 kPa, Liquid, Vibrating tube method
[3] = refractive index (Na D-line) (dimensionless); settings: 298.15 K; 101.33 kPa; Liquid; Standard Abbe refractometry
[4] = Ebulliometric method (Recirculating still)

In the case of `CCO` [ethanol], the mass density ([1]; 101 kPa) is reported as 785.2 ± 0.3 kg/m3 and the “vapor or sublimation pressure” value ([1]; 405.53 K, Ebulliometric method (Recirculating still)) is reported as 600 ± 7.5 kPa.
Work on `CC(=O)OCC(C)C` [2-methylpropyl ethanoate] + CC(C)O yielded a mass density ([2]; x1 = 0.051) of 787.4 ± 0.3 kg/m3, a mass density ([2]; x1 = 0.126) of 796.2 ± 0.3 kg/m3 and a mass density ([2]; x1 = 0.204) of 804.7 ± 0.3 kg/m3. The mass density ([2]; x1 = 0.235) was 807.9 ± 0.3 kg/m3, the mass density ([2]; x1 = 0.352) was 819.1 ± 0.3 kg/m3 and the mass density ([2]; x1 = 0.407) was 824 ± 0.3 kg/m3. It also gave a mass density ([2]; x1 = 0.501) of 831.8 ± 0.3 kg/m3, a mass density ([2]; x1 = 0.549) of 835.6 ± 0.3 kg/m3 and a mass density ([2]; x1 = 0.677) of 845.1 ± 0.3 kg/m3. It also gave a mass density ([2]; x1 = 0.752) of 850.3 ± 0.3 kg/m3, a mass density ([2]; x1 = 0.799) of 853.5 ± 0.3 kg/m3 and a mass density ([2]; x1 = 0.868) of 857.9 ± 0.3 kg/m3. It also gave a mass density ([2]; x1 = 0.949) of 863.1 ± 0.4 kg/m3 and a mass density ([2]; x1 = 1) of 866.2 ± 0.4 kg/m3.
With `CC(C)O` [propan-2-ol] the mass density ([1]; 101.33 kPa) was 781.3 ± 0.2 kg/m3, the “vapor or sublimation pressure” value ([1]; 410.08 K, Ebulliometric method (Recirculating still)) was 600 ± 7.5 kPa and the Normal boiling temperature [1, 4] was 82.38 ± 1 °C. The refractive index [3] was 1.3751 ± 0.0005.
`CCCO` [propan-1-ol] + CC(=O)OCC(C)C gave a mass density ([2]; x2 = 0) of 799.6 ± 0.3 kg/m3.
With `CCCO` [propan-1-ol] the mass density ([1]; 101.33 kPa) was 799.6 ± 0.3 kg/m3, the “vapor or sublimation pressure” value ([1]; 313.98 K, Closed cell (Static) method) was 8 ± 4 kPa and the “vapor or sublimation pressure” value ([1]; 325.46 K, Closed cell (Static) method) was 14 ± 4 kPa. The “vapor or sublimation pressure” value ([1]; 331.28 K, Closed cell (Static) method) was 18 ± 4 kPa, the “vapor or sublimation pressure” value ([1]; 335.02 K, Closed cell (Static) method) was 22 ± 4 kPa and the “vapor or sublimation pressure” value ([1]; 339.49 K, Closed cell (Static) method) was 28 ± 4 kPa. The “vapor or sublimation pressure” value ([1]; 343.81 K, Closed cell (Static) method) was 34 ± 4 kPa, the “vapor or sublimation pressure” value ([1]; 347.33 K, Closed cell (Static) method) was 40 ± 4 kPa and the “vapor or sublimation pressure” value ([1]; 351.55 K, Closed cell (Static) method) was 48 ± 4 kPa. For the same compound, the “vapor or sublimation pressure” value ([1]; 353.46 K, Closed cell (Static) method) was 52 ± 4 kPa, the “vapor or sublimation pressure” value ([1]; 356.16 K, Closed cell (Static) method) was 58 ± 4 kPa and the “vapor or sublimation pressure” value ([1]; 359.07 K, Closed cell (Static) method) was 66 ± 4 kPa. For the same compound, the “vapor or sublimation pressure” value ([1]; 361.64 K, Closed cell (Static) method) was 72 ± 4 kPa, the “vapor or sublimation pressure” value ([1]; 363.69 K, Closed cell (Static) method) was 78 ± 4 kPa and the “vapor or sublimation pressure” value ([1]; 366.43 K, Closed cell (Static) method) was 88 ± 4 kPa. The “vapor or sublimation pressure” value ([1]; 367.86 K, Closed cell (Static) method) was 92 ± 4 kPa, the “vapor or sublimation pressure” value ([1]; 372.66 K, Closed cell (Static) method) was 110 ± 4 kPa and the “vapor or sublimation pressure” value ([1]; 374.63 K, Closed cell (Static) method) was 118 ± 4 kPa. For the same compound, the “vapor or sublimation pressure” value ([1]; 376.34 K, Closed cell (Static) method) was 126 ± 4 kPa, the “vapor or sublimation pressure” value ([1]; 378.84 K, Closed cell (Static) method) was 138 ± 4 kPa and the “vapor or sublimation pressure” value ([1]; 380.75 K, Closed cell (Static) method) was 148 ± 4 kPa. For the same compound, the “vapor or sublimation pressure” value ([1]; 382.61 K, Closed cell (Static) method) was 158 ± 4 kPa, the “vapor or sublimation pressure” value ([1]; 384.08 K, Closed cell (Static) method) was 166 ± 4 kPa and the “vapor or sublimation pressure” value ([1]; 385.46 K, Closed cell (Static) method) was 174 ± 4 kPa. For the same compound, the “vapor or sublimation pressure” value ([1]; 386.6 K, Closed cell (Static) method) was 182 ± 4 kPa, the “vapor or sublimation pressure” value ([1]; 387.29 K, Closed cell (Static) method) was 186 ± 4 kPa and the “vapor or sublimation pressure” value ([1]; 389.05 K, Closed cell (Static) method) was 198 ± 4 kPa. For the same compound, the “vapor or sublimation pressure” value ([1]; 390.26 K, Closed cell (Static) method) was 206 ± 4 kPa, the “vapor or sublimation pressure” value ([1]; 391.39 K, Closed cell (Static) method) was 214 ± 4 kPa and the “vapor or sublimation pressure” value ([1]; 393.67 K, Closed cell (Static) method) was 230 ± 4 kPa. The “vapor or sublimation pressure” value ([1]; 398.52 K, Closed cell (Static) method) was 260 ± 4 kPa, the “vapor or sublimation pressure” value ([1]; 406.65 K, Closed cell (Static) method) was 340 ± 4 kPa and the “vapor or sublimation pressure” value ([1]; 410.69 K, Closed cell (Static) method) was 382 ± 4 kPa. For the same compound, the “vapor or sublimation pressure” value ([1]; 414.02 K, Closed cell (Static) method) was 420 ± 4 kPa, the “vapor or sublimation pressure” value ([1]; 417.3 K, Closed cell (Static) method) was 460 ± 4 kPa and the “vapor or sublimation pressure” value ([1]; 418.84 K, Closed cell (Static) method) was 475 ± 4 kPa. The “vapor or sublimation pressure” value ([1]; 421.54 K, Closed cell (Static) method) was 512 ± 4 kPa, the “vapor or sublimation pressure” value ([1]; 423.55 K, Closed cell (Static) method) was 545 ± 4 kPa and the “vapor or sublimation pressure” value ([1]; 427.2 K, Ebulliometric method (Recirculating still)) was 600 ± 7.5 kPa. The “vapor or sublimation pressure” value ([1]; 427.98 K, Closed cell (Static) method) was 612 ± 4 kPa, the “vapor or sublimation pressure” value ([1]; 430.49 K, Closed cell (Static) method) was 655 ± 4 kPa and the “vapor or sublimation pressure” value ([1]; 432.23 K, Closed cell (Static) method) was 685 ± 4 kPa. The “vapor or sublimation pressure” value ([1]; 434.42 K, Closed cell (Static) method) was 722 ± 4 kPa, the “vapor or sublimation pressure” value ([1]; 436.33 K, Closed cell (Static) method) was 755 ± 4 kPa and the “vapor or sublimation pressure” value ([1]; 439.88 K, Closed cell (Static) method) was 825 ± 4 kPa. The “vapor or sublimation pressure” value ([1]; 441.78 K, Closed cell (Static) method) was 865 ± 4 kPa, the “vapor or sublimation pressure” value ([1]; 443 K, Closed cell (Static) method) was 890 ± 4 kPa and the “vapor or sublimation pressure” value ([1]; 444.97 K, Closed cell (Static) method) was 935 ± 4 kPa. For the same compound, the “vapor or sublimation pressure” value ([1]; 448.1 K, Closed cell (Static) method) was 1007 ± 4 kPa, the “vapor or sublimation pressure” value ([1]; 449.6 K, Closed cell (Static) method) was 1043 ± 4 kPa and the “vapor or sublimation pressure” value ([1]; 452.29 K, Closed cell (Static) method) was 1112 ± 4 kPa. The “vapor or sublimation pressure” value ([1]; 453.22 K, Closed cell (Static) method) was 1135 ± 4 kPa, the “vapor or sublimation pressure” value ([1]; 454.7 K, Closed cell (Static) method) was 1175 ± 5 kPa and the “vapor or sublimation pressure” value ([1]; 456 K, Closed cell (Static) method) was 1210 ± 5 kPa. For the same compound, the “vapor or sublimation pressure” value ([1]; 457.19 K, Closed cell (Static) method) was 1245 ± 5 kPa, the “vapor or sublimation pressure” value ([1]; 458.54 K, Closed cell (Static) method) was 1282 ± 5 kPa and the “vapor or sublimation pressure” value ([1]; 459.71 K, Closed cell (Static) method) was 1317 ± 5 kPa. For the same compound, the “vapor or sublimation pressure” value ([1]; 460.87 K, Closed cell (Static) method) was 1352 ± 5 kPa, the “vapor or sublimation pressure” value ([1]; 461.97 K, Closed cell (Static) method) was 1387 ± 5 kPa and the “vapor or sublimation pressure” value ([1]; 463.21 K, Closed cell (Static) method) was 1425 ± 5 kPa. For the same compound, the “vapor or sublimation pressure” value ([1]; 464.18 K, Closed cell (Static) method) was 1455 ± 5 kPa, the “vapor or sublimation pressure” value ([1]; 465.41 K, Closed cell (Static) method) was 1495 ± 5 kPa and the “vapor or sublimation pressure” value ([1]; 466.65 K, Closed cell (Static) method) was 1535 ± 5 kPa. The “vapor or sublimation pressure” value ([1]; 467.43 K, Closed cell (Static) method) was 1562 ± 5 kPa, the “vapor or sublimation pressure” value ([1]; 468.64 K, Closed cell (Static) method) was 1602 ± 5 kPa and the “vapor or sublimation pressure” value ([1]; 469.46 K, Closed cell (Static) method) was 1630 ± 5 kPa. The Normal boiling temperature [1, 4] was 97.29 ± 1 °C and the refractive index [3] was 1.3837 ± 0.0005.
For `CC(=O)OCC(C)C` [2-methylpropyl ethanoate], the mass density ([1]; 101.33 kPa) was 866.2 ± 0.4 kg/m3, the “vapor or sublimation pressure” value ([1]; 461.03 K, Ebulliometric method (Recirculating still)) was 600 ± 7.5 kPa and the Normal boiling temperature [1, 4] was 116.29 ± 1 °C. For the same compound, the refractive index [3] was 1.3882 ± 0.0005.
`CC(=O)OCC(C)C` [2-methylpropyl ethanoate] + CCCO showed a mass density ([2]; x1 = 0.053) of 805.4 ± 0.3 kg/m3, a mass density ([2]; x1 = 0.092) of 809.3 ± 0.3 kg/m3 and a mass density ([2]; x1 = 0.145) of 814.5 ± 0.3 kg/m3. The mass density ([2]; x1 = 0.196) was 819.1 ± 0.3 kg/m3, the mass density ([2]; x1 = 0.249) was 823.5 ± 0.3 kg/m3 and the mass density ([2]; x1 = 0.302) was 827.6 ± 0.3 kg/m3. It also gave a mass density ([2]; x1 = 0.346) of 830.9 ± 0.3 kg/m3, a mass density ([2]; x1 = 0.444) of 837.6 ± 0.3 kg/m3 and a mass density ([2]; x1 = 0.482) of 840 ± 0.3 kg/m3. It also gave a mass density ([2]; x1 = 0.508) of 841.6 ± 0.3 kg/m3, a mass density ([2]; x1 = 0.565) of 845 ± 0.3 kg/m3 and a mass density ([2]; x1 = 0.613) of 847.7 ± 0.3 kg/m3. The mass density ([2]; x1 = 0.719) was 853.3 ± 0.3 kg/m3, the mass density ([2]; x1 = 0.751) was 854.9 ± 0.3 kg/m3 and the mass density ([2]; x1 = 0.804) was 857.5 ± 0.3 kg/m3. The mass density ([2]; x1 = 0.854) was 859.8 ± 0.3 kg/m3, the mass density ([2]; x1 = 0.889) was 861.4 ± 0.3 kg/m3 and the mass density ([2]; x1 = 0.909) was 862.3 ± 0.4 kg/m3. The mass density ([2]; x1 = 0.953) was 864.2 ± 0.4 kg/m3 and the mass density ([2]; x1 = 1) was 866.2 ± 0.4 kg/m3.
Work on `CC(C)O` [propan-2-ol] + CC(=O)OCC(C)C yielded a mass density ([2]; x2 = 0) of 781.3 ± 0.3 kg/m3.
With `CC(=O)OCC(C)C` [2-methylpropyl ethanoate] + CCO the mass density ([2]; x1 = 0.09) was 799.8 ± 0.3 kg/m3, the mass density ([2]; x1 = 0.153) was 808.3 ± 0.3 kg/m3 and the mass density ([2]; x1 = 0.22) was 816.2 ± 0.3 kg/m3. For the same compound, the mass density ([2]; x1 = 0.277) was 822.2 ± 0.3 kg/m3, the mass density ([2]; x1 = 0.349) was 828.9 ± 0.3 kg/m3 and the mass density ([2]; x1 = 0.44) was 836.3 ± 0.3 kg/m3. For the same compound, the mass density ([2]; x1 = 0.563) was 844.8 ± 0.3 kg/m3, the mass density ([2]; x1 = 0.657) was 850.4 ± 0.3 kg/m3 and the mass density ([2]; x1 = 0.742) was 854.9 ± 0.3 kg/m3. It also gave a mass density ([2]; x1 = 0.85) of 860 ± 0.3 kg/m3, a mass density ([2]; x1 = 0.898) of 862.1 ± 0.3 kg/m3 and a mass density ([2]; x1 = 0.942) of 863.9 ± 0.4 kg/m3. For the same compound, the mass density ([2]; x1 = 1) was 866.2 ± 0.4 kg/m3.
In the case of `CCO` [ethanol] + CC(=O)OCC(C)C, the mass density ([2]; x2 = 0) is reported as 785.2 ± 0.3 kg/m3.
